From patent US12077503B2, “Substituted cyclic amides and their use as herbicides” (FMC CORPORATION, priority 2015, dated 2024)

Columns and labels:
Type in all cases: in vivo
Kochia (Kochia scoparia) [1] = assay: Test A preemergence; conditions: Bassia scoparia, pre-emergence, 240 h, 0 to 100 scale where 0 is no effect and 100 is complete control, read-out: Kochia plant response rating
Outline: (§1)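 Seeded soil received test chemicals as a preemergence directed spray, and seedlings at one to two leaves, 2–10 cm tall, received them postemergence, in a non-phytotoxic, surfactant-containing solvent mixture. Pots were held in a greenhouse for approximately 10 d, then rated for injury from 0, no effect, to 100, complete control.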

[2] = test system: barnyardgrass (Echinochloa crus-galli); assay: Test A preemergence; conditions: Echinochloa crus-galli, pre-emergence, 240 h, 0 to 100 scale where 0 is no effect and 100 is complete control, read-out: Barnyardgrass plant response rating
Outline: as §1

[3] = test system: giant foxtail (Setaria faberii); assay: Test A preemergence; conditions: Setaria faberi, pre-emergence, 240 h, 0 to 100 scale where 0 is no effect and 100 is complete control, read-out: Foxtail, Giant plant response rating
Outline: as §1

[4] = test system: pigweed (Amaranthus retroflexus); assay: Test A preemergence; conditions: Amaranthus retroflexus, pre-emergence, 240 h, 0 to 100 scale where 0 is no effect and 100 is complete control, read-out: Pigweed plant response rating
[5] = test system: ragweed (common ragweed, Ambrosia elatior); assay: Test A preemergence; conditions: Ambrosia artemisiifolia, pre-emergence, 240 h, 0 to 100 scale where 0 is no effect and 100 is complete control, read-out: Ragweed plant response rating
Outline: as §1

[6] = test system: ryegrass, Italian (Italian ryegrass, Lolium multiflorum); assay: Test A preemergence; conditions: Lolium multiflorum, pre-emergence, 240 h, 0 to 100 scale where 0 is no effect and 100 is complete control, read-out: Ryegrass, Italian plant response rating
Outline: as §1

[7] = test system: Galium (catchweed bedstraw, Galium aparine); assay: Test A postemergence; conditions: Galium, post-emergence, 240 h
Outline: as §1

Kochia (Kochia scoparia) [8] = assay: Test A postemergence; conditions: Bassia scoparia, post-emergence, 240 h
Outline: as §1

[9] = test system: barnyardgrass (Echinochloa crus-galli); assay: Test A postemergence; conditions: Echinochloa crus-galli, post-emergence, 240 h
Outline: as §1

[10] = test system: blackgrass (Alopecurus myosuroides); assay: Test A postemergence; conditions: Alopecurus myosuroides, post-emergence, 240 h
Outline: as §1

corn (Zea mays) = assay: Test A postemergence; conditions: Zea mays, post-emergence, 240 h
Outline: as §1

[11] = test system: giant foxtail (Setaria faberii); assay: Test A postemergence; conditions: Setaria faberi, post-emergence, 240 h
Outline: as §1

[12] = test system: pigweed (Amaranthus retroflexus); assay: Test A postemergence; conditions: Amaranthus retroflexus, post-emergence, 240 h, 125 g ai/ha, postemergence, visual injury vs untreated controls after approx. 10 d; 0 = no effect, 100 = complete control; read-out: Pigweed plant response rating (0 to 100 scale)
Outline: as §1

[13] = test system: ragweed (common ragweed, Ambrosia elatior); assay: Test A postemergence; conditions: Ambrosia artemisiifolia, post-emergence, 240 h, 125 g ai/ha, postemergence, visual injury vs untreated controls after approx. 10 d; 0 = no effect, 100 = complete control; read-out: Ragweed plant response rating (0 to 100 scale)
Outline: as §1

[14] = test system: ryegrass, Italian (Italian ryegrass, Lolium multiflorum); assay: Test A postemergence; conditions: Lolium multiflorum, post-emergence, 240 h, 125 g ai/ha, postemergence, visual injury vs untreated controls after approx. 10 d; 0 = no effect, 100 = complete control; read-out: Ryegrass, Italian plant response rating (0 to 100 scale)
Outline: as §1

[15] = test system: wheat (Triticum aestivum); assay: Test A postemergence; conditions: Triticum aestivum, post-emergence, 240 h, 125 g ai/ha, postemergence, visual injury vs untreated controls after approx. 10 d; 0 = no effect, 100 = complete control; read-out: Wheat plant response rating (0 to 100 scale)
Outline: as §1

[16] = test system: barnyardgrass (Echinochloa crus-galli); assay: Test B flooded paddy test; conditions: Echinochloa crus-galli, 250 g ai/ha, Flood; 0 to 100 scale where 0 is no effect and 100 is complete control; read-out: Barnyardgrass plant response rating
Outline: (§2)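 Flooding to 3 cm over soil accompanied treatment, which consisted of adding compound to the standing water around 2-leaf plants; depth was then maintained. Visual assessment versus controls followed at 13 to 15 d (scale 0–100, 0 meaning no effect).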

[17] = test system: ducksalad (Heteranthera limosa); assay: Test B flooded paddy test; conditions: Heteranthera limosa, 250 g ai/ha, Flood; 0 to 100 scale where 0 is no effect and 100 is complete control; read-out: Ducksalad plant response rating
Outline: as §2

rice (Oryra sativa) = assay: Test B flooded paddy test; conditions: Oryza sativa, 250 g ai/ha, Flood; 0 to 100 scale where 0 is no effect and 100 is complete control; read-out: Rice plant response rating
Outline: as §2

[18] = test system: sedge, umbrella (small-flower umbrella sedge, Cyperus difformis); assay: Test B flooded paddy test; conditions: Cyperus difformis, 250 g ai/ha, Flood; 0 to 100 scale where 0 is no effect and 100 is complete control; read-out: Sedge, Umbrella plant response rating
Outline: as §2

[19] = 125 g ai/ha, preemergence, visual injury rating, approximately 10 d

COc1ccc(C(F)(F)F)cc1[C@H]1CN(C)C(=O)[C@@H]1C(=O)Nc1ccccc1F [Compound 1183]
pest or weed control at 31 g/ha (Kochia (Kochia scoparia) [1]; 31 g ai/ha, Preemergence): 0% | pest or weed control at 125 g/ha (Kochia (Kochia scoparia) [1]; [19]): 0% | pest or weed control at 31 g/ha ([2]; 31 g ai/ha, Preemergence): 90% | pest or weed control at 125 g/ha [2, 19]: 90% | pest or weed control at 31 g/ha ([3]; 31 g ai/ha, Preemergence): 80% | pest or weed control at 125 g/ha [3, 19]: 90% | pest or weed control at 31 g/ha ([4]; 31 g ai/ha, Preemergence): 0% | pest or weed control at 125 g/ha [4, 19]: 0% | pest or weed control at 31 g/ha ([5]; 31 g ai/ha, Preemergence): 0% | pest or weed control at 125 g/ha [5, 19]: 0% | pest or weed control at 31 g/ha ([6]; 31 g ai/ha, Preemergence): 20% | pest or weed control at 125 g/ha [6, 19]: 50% | pest or weed control at 125 g/ha ([7]; 125 g ai/ha, postemergence, visual injury vs untreated controls after approx. 10 d, 0 = no effect, 100 = complete control, read-out: Galium plant response rating (0 to 100 scale)): 0% | pest or weed control at 31 g/ha ([7]; Postemergence, 31 g ai/ha, visual injury after approx. 10 d, 0 to 100 scale, 0 no effect, 100 complete control, read-out: Plant response rating, Galium): 0% | pest or weed control at 125 g/ha (Kochia (Kochia scoparia) [8]; 125 g ai/ha, postemergence, visual injury vs untreated controls after approx. 10 d, 0 = no effect, 100 = complete control, read-out: Kochia plant response rating (0 to 100 scale)): 0% | pest or weed control at 31 g/ha (Kochia (Kochia scoparia) [8]; Postemergence, 31 g ai/ha, visual injury after approx. 10 d, 0 to 100 scale, 0 no effect, 100 complete control, read-out: Plant response rating, Kochia): 0% | pest or weed control at 125 g/ha ([9]; 125 g ai/ha, postemergence, visual injury vs untreated controls after approx. 10 d, 0 = no effect, 100 = complete control, read-out: Barnyardgrass plant response rating (0 to 100 scale)): 90% | pest or weed control at 31 g/ha ([9]; Postemergence, 31 g ai/ha, visual injury after approx. 10 d, 0 to 100 scale, 0 no effect, 100 complete control, read-out: Plant response rating, Barnyardgrass): 80% | pest or weed control at 125 g/ha ([10]; 125 g ai/ha, postemergence, visual injury vs untreated controls after approx. 10 d, 0 = no effect, 100 = complete control, read-out: Blackgrass plant response rating (0 to 100 scale)): 50% | pest or weed control at 31 g/ha ([10]; Postemergence, 31 g ai/ha, visual injury after approx. 10 d, 0 to 100 scale, 0 no effect, 100 complete control, read-out: Plant response rating, Blackgrass): 0% | plant injury at 125 g/ha (corn (Zea mays); 125 g ai/ha, postemergence, visual injury vs untreated controls after approx. 10 d, 0 = no effect, 100 = complete control, read-out: Corn plant response rating (0 to 100 scale)): 60% | Corn plant response rating (crop injury, 0 = no effect, 100 = complete kill) at 31 g/ha (corn (Zea mays); Postemergence, 31 g ai/ha, visual injury after approx. 10 d, 0 to 100 scale, 0 no effect, 100 complete control): 30% | pest or weed control at 125 g/ha ([11]; 125 g ai/ha, postemergence, visual injury vs untreated controls after approx. 10 d, 0 = no effect, 100 = complete control, read-out: Foxtail, Giant plant response rating (0 to 100 scale)): 80% | pest or weed control at 31 g/ha ([11]; Postemergence, 31 g ai/ha, visual injury after approx. 10 d, 0 to 100 scale, 0 no effect, 100 complete control, read-out: Plant response rating, Foxtail, Giant): 70% | pest or weed control at 125 g/ha [12]: 0% | pest or weed control at 125 g/ha [13]: 0% | pest or weed control at 125 g/ha [14]: 50% | plant injury at 125 g/ha [15]: 50% | pest or weed control at 250 g/ha [16]: 95% | pest or weed control at 250 g/ha [17]: 95% | pest or weed control at 250 g/ha (rice (Oryra sativa)): 10% | pest or weed control at 250 g/ha [18]: 0%
